According to ChEMBL document CHEMBL1201862, “PubChem BioAssay data set” (2004):
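48-hour exposure; five concentrations; linearly interpolated endpoints. Here, GI50 denotes the concentration required for 50% inhibition of growth.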 Active and inactive are the calls of the source. Rule as the data show it: active = GI50 up to about 1.1 µM and inactive = higher.

Key:
Test in all cases: NCI tumour cell line growth inhibition, 48 h
UACC-62 = tested on: UACC-62
EKVX = tested on: EKVX
SF-295 = tested on: SF-295
KM12 = tested on: KM12
SF-539 = tested on: SF-539
M14 = tested on: M14
SNB-19 = tested on: SNB-19
MOLT-4 = tested on: MOLT-4
A549 = tested on: A549
786-0 = tested on: 786-0
UACC-257 = tested on: UACC-257
K562 = tested on: K562
RPMI-8226 = tested on: RPMI-8226
NCI-H522 = tested on: NCI-H522
HOP-62 = tested on: HOP-62

Measured: GI50

COc1ccc(OC)c2c1C(=O)C1CC1(Br)C2=O (stereo not given)
inactive: UACC-62 > 100 µM | EKVX 73.1 µM | SF-295 > 100 µM | KM12 > 100 µM | SF-539 > 100 µM | M14 > 100 µM | SNB-19 > 100 µM | MOLT-4 > 100 µM | A549 > 100 µM | 786-0 > 100 µM | UACC-257 > 100 µM | K562 > 100 µM | RPMI-8226 > 100 µM | NCI-H522 > 100 µM | HOP-62 > 100 µM

Nc1nc(N)c(N=O)c(Nc2ccc(I)cc2)n1
inactive: UACC-62 7.78 µM | EKVX > 100 µM | SF-295 28.6 µM | KM12 18.5 µM | SF-539 25.5 µM | M14 12.4 µM | SNB-19 30.1 µM | MOLT-4 3.98 µM | A549 65.8 µM | 786-0 25.5 µM | UACC-257 19.5 µM | K562 14.1 µM | RPMI-8226 20.9 µM | NCI-H522 12.1 µM | HOP-62 16.6 µM

O=C1CNS(=O)(=O)N1
inactive: UACC-62 > 100 µM | EKVX > 100 µM | SF-295 > 100 µM | KM12 > 100 µM | SF-539 > 100 µM | M14 > 100 µM | SNB-19 > 100 µM | MOLT-4 > 100 µM | A549 > 100 µM | 786-0 > 100 µM | UACC-257 > 100 µM | K562 > 100 µM | RPMI-8226 > 100 µM | NCI-H522 > 100 µM | HOP-62 > 100 µM

CC1Nc2ccccc2NC1C=C(C#N)C#N (stereo not given)
inactive: UACC-62 16.1 µM | EKVX 19.5 µM | SF-295 15.5 µM | KM12 16.5 µM | SF-539 13.2 µM | M14 11.9 µM | SNB-19 17.9 µM | MOLT-4 5.96 µM | A549 22.8 µM | 786-0 16 µM | UACC-257 > 10 µM | K562 8.32 µM | RPMI-8226 4.58 µM | NCI-H522 10.9 µM | HOP-62 20.4 µM

c1ccc2c(c1)CCc1c(-c3ccncc3)n[nH]c1-2
inactive: UACC-62 16.4 µM | EKVX 6.14 µM | SF-295 45.7 µM | KM12 21.8 µM | SF-539 24.8 µM | M14 22.8 µM | SNB-19 27.7 µM | MOLT-4 36 µM | A549 30.8 µM | 786-0 37.8 µM | UACC-257 25.6 µM | K562 48.2 µM | RPMI-8226 26.5 µM | NCI-H522 > 10 µM | HOP-62 28.4 µM

COc1cc2cc3c4c(cc(OC)c(OC)c4c2cc1OC)CCN3C(=O)N(C)C
inactive: UACC-62 > 100 µM | EKVX > 100 µM | SF-295 37.8 µM | KM12 > 100 µM | SF-539 34.5 µM | M14 > 10 µM | SNB-19 > 100 µM | MOLT-4 > 100 µM | A549 > 100 µM | 786-0 44.5 µM | UACC-257 > 100 µM | K562 > 100 µM | RPMI-8226 82.6 µM | NCI-H522 29.9 µM | HOP-62 72.1 µM

Cn1c(=O)c(C2c3ccccc3Oc3c2c(=O)n(C)c2ccccc32)c(O)c2ccccc21 (stereo not given)
inactive: UACC-62 44.9 µM | EKVX 41.2 µM | SF-295 54.5 µM | KM12 69.8 µM | SF-539 76.2 µM | M14 60 µM | SNB-19 44.4 µM | MOLT-4 39.4 µM | A549 72.6 µM | 786-0 27.2 µM | UACC-257 24.1 µM | K562 51.2 µM | RPMI-8226 38.5 µM | NCI-H522 24.3 µM | HOP-62 > 100 µM

O=C(CC(=O)c1ccccc1)C(=O)Nc1ccc(Cl)cc1
inactive: UACC-62 > 100 µM | EKVX > 100 µM | SF-295 > 100 µM | KM12 > 100 µM | SF-539 > 100 µM | M14 > 100 µM | SNB-19 > 100 µM | MOLT-4 > 100 µM | A549 > 94.6 µM | 786-0 > 67.6 µM | UACC-257 > 61.5 µM | K562 > 85.5 µM | RPMI-8226 > 100 µM | NCI-H522 97.9 µM | HOP-62 > 100 µM

N#CC1([N+](=O)[O-])C=C1c1ccccc1 (stereo not given)
inactive: UACC-62 20.9 µM | EKVX > 100 µM | SF-295 > 100 µM | KM12 > 100 µM | SF-539 > 100 µM | M14 42.6 µM | SNB-19 > 100 µM | MOLT-4 22.7 µM | A549 > 100 µM | 786-0 28.8 µM | UACC-257 78 µM | K562 23.2 µM | RPMI-8226 19.5 µM | NCI-H522 23.4 µM | HOP-62 > 100 µM

OC1(c2ccccc2)OC(C#Cc2ccccc2)(c2ccccc2)c2ccccc21 (stereo not given)
inactive: UACC-62 1.94 µM | EKVX 3.19 µM | SF-295 5.57 µM | KM12 1.59 µM | SF-539 1.97 µM | M14 2.21 µM | SNB-19 13.2 µM | MOLT-4 2.08 µM | A549 3.86 µM | 786-0 3.73 µM | UACC-257 8.32 µM | K562 3.55 µM | RPMI-8226 1.94 µM | NCI-H522 7.48 µM | HOP-62 15.4 µM

O=C(/C=C/c1ccccc1F)c1ccc(Cl)c(Cl)c1
inactive: UACC-62 52.8 µM | EKVX > 100 µM | SF-295 39.3 µM | KM12 19.9 µM | SF-539 30 µM | M14 32.4 µM | SNB-19 > 58.6 µM | MOLT-4 27.4 µM | A549 64 µM | 786-0 17.3 µM | UACC-257 49.4 µM | K562 20.5 µM | RPMI-8226 27.7 µM | NCI-H522 23.2 µM | HOP-62 > 100 µM

O=C(CC(=O)N1N=C(n2ccc3ccccc32)CC1c1ccccc1)Nc1ccc(Cl)cc1 (stereo not given)
inactive: UACC-62 > 100 µM | EKVX > 100 µM | SF-295 > 100 µM | KM12 > 100 µM | SF-539 8.75 µM | M14 > 100 µM | SNB-19 > 100 µM | MOLT-4 8.39 µM | A549 > 100 µM | 786-0 > 100 µM | UACC-257 > 100 µM | K562 > 100 µM | RPMI-8226 52.1 µM | NCI-H522 > 100 µM | HOP-62 > 100 µM

COC(=O)C1=C(CO)C2C=CC1C2 (stereo not given)
inactive: UACC-62 > 100 µM | EKVX > 100 µM | SF-295 > 100 µM | KM12 > 100 µM | SF-539 > 100 µM | M14 > 100 µM | SNB-19 > 100 µM | MOLT-4 > 100 µM | A549 > 100 µM | 786-0 > 100 µM | UACC-257 > 100 µM | K562 > 100 µM | RPMI-8226 > 100 µM | NCI-H522 > 100 µM | HOP-62 > 100 µM
